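Five concentrations, 48 hours, 96-well plates. Here, GI50 denotes the concentration required for 50% inhibition of growth.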 The source made the active and inactive calls. Cut-off read from the data, not from the text of the source: active = GI50 up to about 1.1 µM and inactive = higher.
Columns and labels:
Assay in all cases: inhibition of tumour cell growth, NCI panel, 48 h
A549 = system: A549
CAKI-1 = system: CAKI-1
CCRF-CEM = system: CCRF-CEM
HCT-116 = system: HCT-116
HCT-15 = system: HCT-15
HOP-62 = system: HOP-62
HOP-92 = system: HOP-92
IGROV-1 = system: IGROV-1
NCI-H460 = system: NCI-H460
OVCAR-8 = system: OVCAR-8
RPMI-8226 = system: RPMI-8226
SF-268 = system: SF-268
SK-MEL-28 = system: SK-MEL-28
SK-MEL-5 = system: SK-MEL-5
SNB-75 = system: SNB-75
SR = system: SR
SW-620 = system: SW-620
TK-10 = system: TK-10
A498 = system: A498

For `Cc1cc(C=O)c2c(=O)c3c(O)ccc(/C=C/C(C)C)c3oc2c1`, the GI50 (A549) was > 100 µM (inactive), the GI50 (CAKI-1) was 64.7 µM (inactive) and the GI50 (CCRF-CEM) was > 10 µM (inactive). The GI50 (HCT-116) was 20.9 µM (inactive), the GI50 (HCT-15) was 30.5 µM and the GI50 (HOP-62) was > 100 µM (inactive). The GI50 (HOP-92) was 68.9 µM (inactive), the GI50 (IGROV-1) was 52.4 µM (inactive) and the GI50 (NCI-H460) was > 100 µM (inactive). The GI50 (OVCAR-8) was 65.2 µM (inactive), the GI50 (RPMI-8226) was 23.1 µM (inactive) and the GI50 (SF-268) was 41.9 µM (inactive). The GI50 (SK-MEL-28) was 37.9 µM (inactive), the GI50 (SK-MEL-5) was 65.5 µM (inactive) and the GI50 (SNB-75) was 95.1 µM (inactive). The GI50 (SR) was 26.7 µM (inactive), the GI50 (SW-620) was 28.1 µM (inactive) and the GI50 (TK-10) was > 100 µM (inactive).

In the case of `CN1CCN(C(=S)N(C)C(=O)c2ccc(Cl)cc2)CC1`, the GI50 (A549) was > 100 µM (inactive), the GI50 (CCRF-CEM) was > 100 µM (inactive) and the GI50 (HCT-15) was > 100 µM. The GI50 (HOP-92) was > 100 µM (inactive), the GI50 (IGROV-1) was > 100 µM (inactive) and the GI50 (NCI-H460) was > 100 µM (inactive). The GI50 (OVCAR-8) was > 100 µM (inactive), the GI50 (RPMI-8226) was > 100 µM (inactive) and the GI50 (SF-268) was > 100 µM (inactive). For the same compound, the GI50 (SK-MEL-28) was > 100 µM (inactive), the GI50 (SK-MEL-5) was > 100 µM (inactive) and the GI50 (SNB-75) was > 100 µM (inactive). The GI50 (SR) was > 10 µM (inactive), the GI50 (SW-620) was > 100 µM (inactive) and the GI50 (TK-10) was > 100 µM (inactive).

In the case of `CC(=O)c1ccc2c(ccc(=O)n2C)c1`, the GI50 (A498) was > 100 µM (inactive), the GI50 (A549) was > 100 µM (inactive) and the GI50 (CAKI-1) was > 100 µM (inactive). The GI50 (CCRF-CEM) was > 100 µM (inactive), the GI50 (HCT-116) was > 100 µM (inactive) and the GI50 (HCT-15) was > 100 µM. The GI50 (HOP-62) was > 100 µM (inactive), the GI50 (HOP-92) was > 100 µM (inactive) and the GI50 (IGROV-1) was > 100 µM (inactive). The GI50 (NCI-H460) was > 100 µM (inactive), the GI50 (OVCAR-8) was > 100 µM (inactive) and the GI50 (RPMI-8226) was > 100 µM (inactive). For the same compound, the GI50 (SF-268) was > 100 µM (inactive), the GI50 (SK-MEL-28) was > 100 µM (inactive) and the GI50 (SK-MEL-5) was > 100 µM (inactive). For the same compound, the GI50 (SNB-75) was 38.7 µM (inactive), the GI50 (SW-620) was > 100 µM (inactive) and the GI50 (TK-10) was > 100 µM (inactive).

`NC1=NN(c2ccccc2)C(=O)C1/C(=N\NC(=O)c1cc2ccccc2cc1O)C(=O)Nc1cccc(C(F)(F)F)c1` (stereo not given) was tested, and the GI50 (A549) was 37.2 µM (inactive), the GI50 (CCRF-CEM) was 7.06 µM (inactive) and the GI50 (HCT-116) was 25.4 µM (inactive). For the same compound, the GI50 (HOP-62) was 39.4 µM (inactive), the GI50 (HOP-92) was 33.2 µM (inactive) and the GI50 (IGROV-1) was 27.8 µM (inactive). For the same compound, the GI50 (NCI-H460) was 27.1 µM (inactive), the GI50 (OVCAR-8) was 24.1 µM (inactive) and the GI50 (RPMI-8226) was 39.7 µM (inactive). The GI50 (SF-268) was 23.5 µM (inactive), the GI50 (SK-MEL-28) was 57.7 µM (inactive) and the GI50 (SK-MEL-5) was 23.1 µM (inactive). For the same compound, the GI50 (SNB-75) was > 100 µM (inactive), the GI50 (SW-620) was 34.7 µM (inactive) and the GI50 (TK-10) was > 100 µM (inactive).

For `CC1(O)CCC2(C)C(=O)C1(C)CCC21OCCO1` (stereo not given), the GI50 (A549) was > 100 µM (inactive), the GI50 (CCRF-CEM) was > 100 µM (inactive) and the GI50 (HCT-15) was > 100 µM. For the same compound, the GI50 (HOP-92) was > 100 µM (inactive), the GI50 (IGROV-1) was > 100 µM (inactive) and the GI50 (NCI-H460) was > 100 µM (inactive). The GI50 (OVCAR-8) was > 100 µM (inactive), the GI50 (RPMI-8226) was > 100 µM (inactive) and the GI50 (SF-268) was > 100 µM (inactive). The GI50 (SK-MEL-28) was > 100 µM (inactive), the GI50 (SK-MEL-5) was > 100 µM (inactive) and the GI50 (SR) was > 100 µM (inactive). For the same compound, the GI50 (SW-620) was > 100 µM (inactive) and the GI50 (TK-10) was > 100 µM (inactive).

For `O=[N+]([O-])c1ccc(C[P+]2(c3ccccc3)CCCCC2)cc1.[O-][Cl+3]([O-])([O-])[O-]`, the GI50 (A498) was > 100 µM (inactive), the GI50 (A549) was > 100 µM (inactive) and the GI50 (CCRF-CEM) was > 100 µM (inactive). The GI50 (HCT-116) was > 100 µM (inactive), the GI50 (HCT-15) was 72.1 µM and the GI50 (HOP-62) was > 100 µM (inactive). For the same compound, the GI50 (IGROV-1) was > 100 µM (inactive), the GI50 (NCI-H460) was > 100 µM (inactive) and the GI50 (OVCAR-8) was > 100 µM (inactive). The GI50 (RPMI-8226) was > 100 µM (inactive), the GI50 (SK-MEL-28) was > 100 µM (inactive) and the GI50 (SK-MEL-5) was > 100 µM (inactive). For the same compound, the GI50 (SNB-75) was > 100 µM (inactive), the GI50 (SR) was > 100 µM (inactive) and the GI50 (SW-620) was > 100 µM (inactive). The GI50 (TK-10) was > 100 µM (inactive).

In the case of `CCOP1(=O)C=CC(Cl)=C(C)C1` (stereo not given), the GI50 (A498) was 29.2 µM (inactive), the GI50 (A549) was 31.1 µM (inactive) and the GI50 (CAKI-1) was 10.5 µM (inactive). The GI50 (CCRF-CEM) was 3.13 µM (inactive), the GI50 (HCT-116) was 5.58 µM (inactive) and the GI50 (HCT-15) was 13.7 µM. The GI50 (HOP-62) was 27.2 µM (inactive), the GI50 (HOP-92) was 16.9 µM (inactive) and the GI50 (IGROV-1) was 23.4 µM (inactive). For the same compound, the GI50 (NCI-H460) was 27.4 µM (inactive), the GI50 (OVCAR-8) was 19.6 µM (inactive) and the GI50 (RPMI-8226) was 6.82 µM (inactive). For the same compound, the GI50 (SF-268) was 22.1 µM (inactive), the GI50 (SK-MEL-28) was 16.2 µM (inactive) and the GI50 (SK-MEL-5) was 17.7 µM (inactive). For the same compound, the GI50 (SNB-75) was 4.67 µM (inactive), the GI50 (SW-620) was 11.5 µM (inactive) and the GI50 (TK-10) was 19.5 µM (inactive).

In the case of `Cc1ccc(NC(=O)CC/C(CC(=O)c2ccc(Cl)cc2)=N\NC(=O)C(=O)NN)cc1C`, the GI50 (A498) was > 100 µM (inactive), the GI50 (A549) was > 100 µM (inactive) and the GI50 (CAKI-1) was > 100 µM (inactive). The GI50 (CCRF-CEM) was > 100 µM (inactive), the GI50 (HCT-116) was > 100 µM (inactive) and the GI50 (HCT-15) was > 100 µM. The GI50 (HOP-62) was > 100 µM (inactive), the GI50 (IGROV-1) was > 100 µM (inactive) and the GI50 (NCI-H460) was > 100 µM (inactive). For the same compound, the GI50 (OVCAR-8) was > 100 µM (inactive), the GI50 (RPMI-8226) was > 100 µM (inactive) and the GI50 (SF-268) was > 100 µM (inactive). For the same compound, the GI50 (SK-MEL-28) was > 100 µM (inactive), the GI50 (SK-MEL-5) was > 100 µM (inactive) and the GI50 (SNB-75) was > 100 µM (inactive). The GI50 (SR) was > 100 µM (inactive), the GI50 (SW-620) was > 100 µM (inactive) and the GI50 (TK-10) was > 100 µM (inactive).

For `COc1ccc(CNc2cc(OC)cc(OC)c2)cc1`, the GI50 (A549) was 60.8 µM (inactive), the GI50 (HCT-116) was 52.4 µM (inactive) and the GI50 (HOP-62) was > 61.5 µM (inactive). The GI50 (HOP-92) was 58.9 µM (inactive), the GI50 (IGROV-1) was > 71.6 µM (inactive) and the GI50 (NCI-H460) was > 86.1 µM (inactive). The GI50 (OVCAR-8) was > 82 µM (inactive), the GI50 (RPMI-8226) was > 49.7 µM (inactive) and the GI50 (SF-268) was 33.9 µM (inactive). The GI50 (SK-MEL-28) was 51.5 µM (inactive), the GI50 (SK-MEL-5) was 30.3 µM (inactive) and the GI50 (SNB-75) was 35.3 µM (inactive). The GI50 (SW-620) was > 100 µM (inactive).
